The source of these data is patent US8329063B2, “Low-emission formaldehyde donor preparations” (Air Liquide Sante (International), priority 2004, dated 2012).

Series [1] is described as follows: Determining formaldehyde in the gas phase above preservatives (Dräger tubes 0.2/a). The series is classed as physicochemical. Here is the method: 1. Method of Determining Formaldehyde in the Gas Phase
(§1) • The determination of the formaldehyde content in the gas phase above various preservatives was carried out using Dräger tubes 0.2/a (No. 6733081) in accordance with the instructions for use from Dräger Safety AG & Co. KGaA (9th Edition, July 2001). For this purpose, about 100 g of the sample to be investigated were introduced into a 250 ml wide-necked beaker with a screw lid and left to stand, in the closed state, for at least 3 hours at room temperature. The measurement was read off after 2 strokes on the scale 0.5 to 5 ppm, n=10. […] 2. Method of Determining Ammonia (Amine) in the Gas Phase • The determination of the amine content in the gas phase above various preservatives was carried out using Dräger tubes 2/a (No. 6733231) in accordance with the instructions for use from Dräger Safety AG & Co. KGaA (9th Edition, July 2001). For this purpose, about 100 g of the sample to be investigated were introduced into a 250 ml wide-necked beaker with a screw lid and left to stand, in the closed state, for at least 3 hours at room temperature. The measurement was read off after one stroke on the scale. […] 3. Formaldehyde and Amine Emissions of Preservatives • In the gas phase of preservatives formulated as described below, using the methods described under 1. and 2., the following formaldehyde and amine concentrations were measured in the gas phase (Table 1): • Preservatives A, B and C were prepared by adding urea and monoethylene glycol dissolved in water to Grotan® OX and stripping off the water on a rotary evaporator (2 hours at 60° C. and 30 mbar). Preservative D (comparative) was prepared by adding monoethylene glycol to Grotan® OX.

A short description of series [2]: Determining ammonia (amine) in the gas phase above preservatives (Dräger tubes 2/a). The class given is physicochemical. The conditions noted are these: amine as NH3. Here is the method:
as §1

Take `CC1CN(CN2COC(C)C2)CO1` (stereo not drawn) [Example E, N,N′-methylenebis(5-methyloxazolidine)]: the “ppm of HCHO” value in series [1] (After 2 weeks (gas phase)) was 3-5 ppm; in series [1] (After 11 weeks (gas phase)) it was 0.7 ppm; in series [1] (After 4 days (gas phase)), 3 ppm. Further, the ppm of amine in series [2] (After 2 weeks (gas phase)) was found to be 15 ppm; in series [2] (After 11 weeks (gas phase)), 13 ppm; in series [2] (After 4 days (gas phase)) it was 10 ppm.
